Experimental data published in ChEMBL document CHEMBL2069285, “Synthesis of N-(1-methyl-1H-indol-3-yl)methyleneamines and 3,3-diaryl-4-(1-methyl-1H-indol-3-yl)azetidin-2-ones as potential antileishmanial agents” (Bioorg Med Chem Lett, 2012).
In brackets after ≈: the same amount, converted by molar mass.

Test system: Leishmania major
Experiment: Antileishmanial activity against promastigotes of Leishmania major after 72 hrs by neubauer counting chamber analysis
Format: functional, organism-based

Row | SMILES | IC50 [µg/mL]
1 | CCOc1ccc(N2C(=O)C(c3ccc(C)cc3)(c3ccc(C)cc3)C2c2cn(C)c3ccccc23)cc1 (stereo unspecified) | 0.63 (≈ 1.26 µM)
2 | Cn1cc(C2N(c3ccccc3)C(=O)C2(c2ccccc2)c2ccccc2)c2ccccc21 (stereo unspecified) | 0.6 (≈ 1.4 µM)
3 | Cc1ccc(C2(c3ccc(C)cc3)C(=O)N(c3ccccc3)C2c2cn(C)c3ccccc23)cc1 (stereo unspecified) | 0.56 (≈ 1.23 µM)
4 | Cn1cc(/C=N/c2ccc(Cl)cc2)c2ccccc21 | 0.58 (≈ 2.16 µM)
5 | Cn1cc(/C=N/Cc2ccccc2)c2ccccc21 | 0.71 (≈ 2.86 µM)
6 | Cn1cc(/C=N/c2ccccc2)c2ccccc21 | 0.76 (≈ 3.24 µM)
7 | Cc1ccc(N2C(=O)C(c3ccc(C)cc3)(c3ccc(C)cc3)C2c2cn(C)c3ccccc23)cc1 (stereo unspecified) | 0.6 (≈ 1.27 µM)
8 | CCOc1ccc(/N=C/c2cn(C)c3ccccc23)cc1 | 0.88 (≈ 3.16 µM)
9 | Cc1ccc(N2C(=O)C(c3ccccc3)(c3ccccc3)C2c2cn(C)c3ccccc23)cc1 (stereo unspecified) | 0.59 (≈ 1.33 µM)
10 | COc1ccc(/N=C/c2cn(C)c3ccccc23)cc1 | 0.92 (≈ 3.48 µM)
11 | Cc1ccccc1/N=C/c1cn(C)c2ccccc12 | 0.57 (≈ 2.3 µM)
12 | Cc1ccc(C2(c3ccc(C)cc3)C(=O)N(c3ccc(Cl)cc3)C2c2cn(C)c3ccccc23)cc1 (stereo unspecified) | 0.57 (≈ 1.16 µM)
13 | CCOc1ccc(N2C(=O)C(c3ccccc3)(c3ccccc3)C2c2cn(C)c3ccccc23)cc1 (stereo unspecified) | 0.56 (≈ 1.18 µM)
14 | Cn1cc(C2N(c3ccc(Cl)cc3)C(=O)C2(c2ccccc2)c2ccccc2)c2ccccc21 (stereo unspecified) | 0.76 (≈ 1.64 µM)
15 | Cc1ccc(/N=C/c2cn(C)c3ccccc23)cc1 | 0.66 (≈ 2.66 µM)
16 | Cn1cc(/C=N/C(c2ccccc2)c2ccccc2)c2ccccc21 | 0.6 (≈ 1.85 µM)
